Legend:
[1] = system: Mycobacterium tuberculosis; experiment: Antimycobacterial activity against drug-sensitive Mycobacterium tuberculosis H37Rv at 6.250 ug/mL relative to isoniazid by microplate alamar blue assay; assay type: functional
[2] = system: Mycobacterium tuberculosis; experiment: Antimycobacterial activity against drug-sensitive Mycobacterium tuberculosis H37Rv by microplate alamar blue assay; assay type: functional, organism-based
[3] = system: Mycobacterium tuberculosis; experiment: Antimycobacterial activity against drug-sensitive Mycobacterium tuberculosis H37Rv at 3.125 ug/mL relative to isoniazid by microplate alamar blue assay; assay type: functional
[4] = system: Mycobacterium tuberculosis; experiment: Antimycobacterial activity against drug-sensitive Mycobacterium tuberculosis H37Rv at 1000 ug/mL relative to isoniazid by microplate alamar blue assay; assay type: functional

C=CCN(CC=C)NC(=O)c1cc(C23CC4CC(CC(C4)C2)C3)c2ccccc2n1
inhibition at 6.25 µg/mL [1]: 22% | IC50 [2]: 55 µM

CCCN(CCC)NC(=O)c1cc(C23CC4CC(CC(C4)C2)C3)c2ccccc2n1
inhibition at 6.25 µg/mL [1]: 75% | IC50 [2]: 5.13 µM

O=C(NNC1CCCC1)c1cc(C23CC4CC(CC(C4)C2)C3)c2ccccc2n1
inhibition at 3.125 µg/mL [3]: 99% | IC50 [2]: 0.0813 µM

O=C(NNCCCc1ccccc1)c1cc(C23CC4CC(CC(C4)C2)C3)c2ccccc2n1
inhibition at 6.25 µg/mL [1]: 50% | IC50 [2]: 14.1 µM

CCCNNC(=O)c1cc(C23CC4CC(CC(C4)C2)C3)c2ccccc2n1
inhibition at 6.25 µg/mL [1]: 82% | IC50 [2]: 3.8 µM

O=C(N/N=C/c1ccncc1)c1cc(C23CC4CC(CC(C4)C2)C3)c2ccccc2n1
inhibition at 6.25 µg/mL [1]: 70% | IC50 [2]: 6.46 µM

CCC(C)NNC(=O)c1cc(C23CC4CC(CC(C4)C2)C3)c2ccccc2n1 (stereo not drawn)
inhibition at 6.25 µg/mL [1]: 97% | IC50 [2]: 0.513 µM

O=C(NN(C(=O)c1ccccc1)C(=O)c1ccccc1)c1cc(C23CC4CC(CC(C4)C2)C3)c2ccccc2n1
inhibition at 6.25 µg/mL [1]: 51% | IC50 [2]: 11.2 µM

CC/C=N/NC(=O)c1cc(C23CC4CC(CC(C4)C2)C3)c2ccccc2n1
inhibition at 6.25 µg/mL [1]: 69% | IC50 [2]: 7.76 µM

O=C(NNCCc1ccccc1)c1cc(C23CC4CC(CC(C4)C2)C3)c2ccccc2n1
inhibition at 6.25 µg/mL [1]: 65% | IC50 [2]: 7.94 µM

O=C(N/N=C/c1ccc[nH]1)c1cc(C23CC4CC(CC(C4)C2)C3)c2ccccc2n1
inhibition at 3.125 µg/mL [3]: 99% | IC50 [2]: 0.0794 µM

O=C(N/N=C/c1c(F)c(F)c(F)c(F)c1F)c1cc(C23CC4CC(CC(C4)C2)C3)c2ccccc2n1
inhibition at 6.25 µg/mL [1]: 16% | IC50 [2]: 66.1 µM

O=C(N/N=C/c1ccnc2cc(Cl)ccc12)c1cc(C23CC4CC(CC(C4)C2)C3)c2ccccc2n1
inhibition at 6.25 µg/mL [1]: 95% | IC50 [2]: 0.661 µM

COc1ccc(/C=N/NC(=O)c2cc(C34CC5CC(CC(C5)C3)C4)c3ccccc3n2)c2ccccc12
inhibition at 6.25 µg/mL [1]: 57% | IC50 [2]: 9.55 µM

O=C(NNc1cccc(F)c1)c1cc(C23CC4CC(CC(C4)C2)C3)c2ccccc2n1
inhibition at 3.125 µg/mL [3]: 99% | IC50 [2]: 0.0759 µM

O=C(N/N=C/c1cccs1)c1cc(C23CC4CC(CC(C4)C2)C3)c2ccccc2n1
inhibition at 3.125 µg/mL [3]: 99% | IC50 [2]: 0.0759 µM

CCCCNNC(=O)c1cc(C23CC4CC(CC(C4)C2)C3)c2ccccc2n1
inhibition at 6.25 µg/mL [1]: 55% | IC50 [2]: 13.5 µM

CN(C)c1ccc(/C=N/NC(=O)c2cc(C34CC5CC(CC(C5)C3)C4)c3ccccc3n2)c2ccccc12
inhibition at 6.25 µg/mL [1]: 79% | IC50 [2]: 3.31 µM

O=C(N/N=C/c1ccco1)c1cc(C23CC4CC(CC(C4)C2)C3)c2ccccc2n1
inhibition at 3.125 µg/mL [3]: 99% | IC50 [2]: 0.0794 µM

CCCCN(CCCC)NC(=O)c1cc(C23CC4CC(CC(C4)C2)C3)c2ccccc2n1
inhibition at 6.25 µg/mL [1]: 64% | IC50 [2]: 8.13 µM

O=C(N/N=C/c1ccc(O)cc1)c1cc(C23CC4CC(CC(C4)C2)C3)c2ccccc2n1
inhibition at 6.25 µg/mL [1]: 73% | IC50 [2]: 5.37 µM

O=C(NNC1CCCCC1)c1cc(C23CC4CC(CC(C4)C2)C3)c2ccccc2n1
inhibition at 3.125 µg/mL [3]: 99% | IC50 [2]: 0.0776 µM

O=C(NN(CCCc1ccccc1)CCCc1ccccc1)c1cc(C23CC4CC(CC(C4)C2)C3)c2ccccc2n1
inhibition at 6.25 µg/mL [1]: 45% | IC50 [2]: 13.8 µM

NNC(=O)c1cc(C23CC4CC(CC(C4)C2)C3)c2ccccc2n1
inhibition at 6.25 µg/mL [1]: 99% | IC50 [2]: 0.195 µM

O=C(NN(CCc1ccccc1)CCc1ccccc1)c1cc(C23CC4CC(CC(C4)C2)C3)c2ccccc2n1
inhibition at 6.25 µg/mL [1]: 55% | IC50 [2]: 9.55 µM

CC(=O)NNC(=O)c1cc(C23CC4CC(CC(C4)C2)C3)c2ccccc2n1
inhibition at 3.125 µg/mL [3]: 99% | IC50 [2]: 0.0871 µM

CC(C)(C)/C=N/NC(=O)c1cc(C23CC4CC(CC(C4)C2)C3)c2ccccc2n1
inhibition at 6.25 µg/mL [1]: 10% | IC50 [2]: 145 µM

O=C(NNc1ccc(F)cc1)c1cc(C23CC4CC(CC(C4)C2)C3)c2ccccc2n1
inhibition at 6.25 µg/mL [1]: 93% | IC50 [2]: 1.12 µM

O=C(N/N=C/c1ccccn1)c1cc(C23CC4CC(CC(C4)C2)C3)c2ccccc2n1
inhibition at 6.25 µg/mL [1]: 84% | IC50 [2]: 2.88 µM

O=C(N/N=C/c1cccnc1)c1cc(C23CC4CC(CC(C4)C2)C3)c2ccccc2n1
inhibition at 6.25 µg/mL [1]: 53% | IC50 [2]: 13.5 µM

O=C(N/N=C/c1ccnc2ccccc12)c1cc(C23CC4CC(CC(C4)C2)C3)c2ccccc2n1
inhibition at 3.125 µg/mL [3]: 99% | IC50 [2]: 0.0692 µM

O=C(N/N=C/c1ccc(C(F)(F)F)cc1C(F)(F)F)c1cc(C23CC4CC(CC(C4)C2)C3)c2ccccc2n1
inhibition at 6.25 µg/mL [1]: 64% | IC50 [2]: 6.46 µM

O=C(N/N=C/c1c2ccccc2cc2ccccc12)c1cc(C23CC4CC(CC(C4)C2)C3)c2ccccc2n1
inhibition at 6.25 µg/mL [1]: 66% | IC50 [2]: 6.31 µM

O=CNNC(=O)c1cc(C23CC4CC(CC(C4)C2)C3)c2ccccc2n1
inhibition at 6.25 µg/mL [1]: 19% | IC50 [2]: 75.9 µM

O=C(N/N=C/c1ccccc1)c1cc(C23CC4CC(CC(C4)C2)C3)c2ccccc2n1
inhibition at 3.125 µg/mL [3]: 99% | IC50 [2]: 0.0776 µM

COc1ccc2ccccc2c1/C=N/NC(=O)c1cc(C23CC4CC(CC(C4)C2)C3)c2ccccc2n1
inhibition at 6.25 µg/mL [1]: 69% | IC50 [2]: 5.75 µM

CCCCCCNNC(=O)c1cc(C23CC4CC(CC(C4)C2)C3)c2ccccc2n1
inhibition at 6.25 µg/mL [1]: 77% | IC50 [2]: 4.79 µM

COc1ccc(/C=N/NC(=O)c2cc(C34CC5CC(CC(C5)C3)C4)c3ccccc3n2)cc1
inhibition at 6.25 µg/mL [1]: 20% | IC50 [2]: 56.2 µM

CCCCCCN(CCCCCC)NC(=O)c1cc(C23CC4CC(CC(C4)C2)C3)c2ccccc2n1
inhibition at 6.25 µg/mL [1]: 65% | IC50 [2]: 7.24 µM

O=C(N/N=C/c1ccccc1Cl)c1cc(C23CC4CC(CC(C4)C2)C3)c2ccccc2n1
inhibition at 1000 µg/mL [4]: 99% | IC50 [2]: 0.0229 µM

CC(C)/C=N/NC(=O)c1cc(C23CC4CC(CC(C4)C2)C3)c2ccccc2n1
inhibition at 6.25 µg/mL [1]: 63% | IC50 [2]: 9.77 µM

O=C(N/N=C/c1cccc(O)c1)c1cc(C23CC4CC(CC(C4)C2)C3)c2ccccc2n1
inhibition at 6.25 µg/mL [1]: 99% | IC50 [2]: 0.148 µM

O=C(NNc1ccccc1F)c1cc(C23CC4CC(CC(C4)C2)C3)c2ccccc2n1
inhibition at 6.25 µg/mL [1]: 99% | IC50 [2]: 0.151 µM

CC(C)NNC(=O)c1cc(C23CC4CC(CC(C4)C2)C3)c2ccccc2n1
inhibition at 6.25 µg/mL [1]: 51% | IC50 [2]: 16.6 µM
